From ChEMBL document CHEMBL5154916, “Multiparameter Optimization of Naphthyridine Derivatives as Selective α5-GABAA Receptor Negative Allosteric Modulators” (J Med Chem, 2022)

How the values were obtained:
[1] = Metabolic stability in human liver microsomes assessed as intrinsic clearance at 2.5 uM; format: ADME, Microsome; conditions: read-out: CLH
[2] = Metabolic stability in Wistar rat liver microsomes assessed as intrinsic clearance at 2.5 uM; format: ADME, Microsome; conditions: read-out: CLH
[3] = target: T1, GABA-A receptor; alpha-5/beta-3/gamma-2 (Homo sapiens, UniProt P18507+P28472+P31644); experiment: Displacement of [3H]Ro151788 from human recombinant alpha5beta3gamma2 GABAA receptor stably expressed in HEK293 cell membrane assessed as inhibition constant by radioligand binding assay; format: cell membranes
T1 sequence (P18507 whole entry): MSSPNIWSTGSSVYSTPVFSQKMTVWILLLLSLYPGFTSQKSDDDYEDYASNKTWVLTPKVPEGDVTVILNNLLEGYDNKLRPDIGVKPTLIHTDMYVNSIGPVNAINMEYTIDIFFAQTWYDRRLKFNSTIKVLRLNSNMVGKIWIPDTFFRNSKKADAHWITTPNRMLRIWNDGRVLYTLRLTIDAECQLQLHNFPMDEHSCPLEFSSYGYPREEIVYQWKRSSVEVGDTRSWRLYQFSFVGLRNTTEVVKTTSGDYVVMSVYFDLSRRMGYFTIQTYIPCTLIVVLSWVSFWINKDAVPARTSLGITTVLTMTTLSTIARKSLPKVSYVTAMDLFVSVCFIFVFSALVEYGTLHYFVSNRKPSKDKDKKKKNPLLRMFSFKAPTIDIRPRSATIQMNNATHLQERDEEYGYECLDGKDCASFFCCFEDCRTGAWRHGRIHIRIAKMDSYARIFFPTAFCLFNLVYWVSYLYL
T1 sequence (P28472 whole entry): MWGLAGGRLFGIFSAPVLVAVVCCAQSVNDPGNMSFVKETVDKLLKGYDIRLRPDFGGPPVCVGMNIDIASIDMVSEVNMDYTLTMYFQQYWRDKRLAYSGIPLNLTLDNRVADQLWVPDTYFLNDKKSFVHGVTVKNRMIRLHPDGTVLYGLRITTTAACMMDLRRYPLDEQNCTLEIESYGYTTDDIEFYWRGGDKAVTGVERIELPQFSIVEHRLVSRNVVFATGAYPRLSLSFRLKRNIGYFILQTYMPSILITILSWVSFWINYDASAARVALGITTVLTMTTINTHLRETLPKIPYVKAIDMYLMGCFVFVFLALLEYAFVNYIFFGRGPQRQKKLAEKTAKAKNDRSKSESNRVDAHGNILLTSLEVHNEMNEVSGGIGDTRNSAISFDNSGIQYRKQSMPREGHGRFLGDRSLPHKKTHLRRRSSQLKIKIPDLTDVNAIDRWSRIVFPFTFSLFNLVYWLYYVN
T1 sequence (P31644 whole entry): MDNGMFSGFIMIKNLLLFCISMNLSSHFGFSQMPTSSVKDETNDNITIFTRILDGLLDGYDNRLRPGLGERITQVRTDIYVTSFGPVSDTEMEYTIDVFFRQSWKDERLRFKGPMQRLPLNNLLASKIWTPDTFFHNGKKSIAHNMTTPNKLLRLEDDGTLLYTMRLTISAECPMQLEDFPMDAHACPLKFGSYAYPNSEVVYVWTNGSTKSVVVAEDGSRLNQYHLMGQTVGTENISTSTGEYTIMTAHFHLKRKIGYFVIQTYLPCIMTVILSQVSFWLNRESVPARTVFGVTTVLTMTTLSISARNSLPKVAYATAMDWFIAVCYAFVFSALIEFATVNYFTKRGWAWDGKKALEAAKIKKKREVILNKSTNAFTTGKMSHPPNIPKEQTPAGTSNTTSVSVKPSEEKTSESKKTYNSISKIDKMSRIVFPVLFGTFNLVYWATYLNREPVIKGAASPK

[4] = target: T2, GABA-A receptor; alpha-5/beta-3/gamma-2 (Homo sapiens) (UniProt P18507+P28472+P31644); experiment: Negative allosteric modulation activity at human recombinant alpha5beta3gamma2 GABAA receptor stably expressed in HEK293 cells assessed as modulation at alpha5 subunit at 10 uM by Patch clamp method; format: cell-based; conditions: filed as negative allosteric modulator
[5] = target: Voltage-gated inwardly rectifying potassium channel KCNH2 (Homo sapiens, UniProt Q12809); experiment: Inhibition of hERG expressed in CHO cells stably at -80 mV holding potential by automated patch clamp method; format: toxicity, cell-based
Chain of Voltage-gated inwardly rectifying potassium channel KCNH2 (Q12809 whole entry): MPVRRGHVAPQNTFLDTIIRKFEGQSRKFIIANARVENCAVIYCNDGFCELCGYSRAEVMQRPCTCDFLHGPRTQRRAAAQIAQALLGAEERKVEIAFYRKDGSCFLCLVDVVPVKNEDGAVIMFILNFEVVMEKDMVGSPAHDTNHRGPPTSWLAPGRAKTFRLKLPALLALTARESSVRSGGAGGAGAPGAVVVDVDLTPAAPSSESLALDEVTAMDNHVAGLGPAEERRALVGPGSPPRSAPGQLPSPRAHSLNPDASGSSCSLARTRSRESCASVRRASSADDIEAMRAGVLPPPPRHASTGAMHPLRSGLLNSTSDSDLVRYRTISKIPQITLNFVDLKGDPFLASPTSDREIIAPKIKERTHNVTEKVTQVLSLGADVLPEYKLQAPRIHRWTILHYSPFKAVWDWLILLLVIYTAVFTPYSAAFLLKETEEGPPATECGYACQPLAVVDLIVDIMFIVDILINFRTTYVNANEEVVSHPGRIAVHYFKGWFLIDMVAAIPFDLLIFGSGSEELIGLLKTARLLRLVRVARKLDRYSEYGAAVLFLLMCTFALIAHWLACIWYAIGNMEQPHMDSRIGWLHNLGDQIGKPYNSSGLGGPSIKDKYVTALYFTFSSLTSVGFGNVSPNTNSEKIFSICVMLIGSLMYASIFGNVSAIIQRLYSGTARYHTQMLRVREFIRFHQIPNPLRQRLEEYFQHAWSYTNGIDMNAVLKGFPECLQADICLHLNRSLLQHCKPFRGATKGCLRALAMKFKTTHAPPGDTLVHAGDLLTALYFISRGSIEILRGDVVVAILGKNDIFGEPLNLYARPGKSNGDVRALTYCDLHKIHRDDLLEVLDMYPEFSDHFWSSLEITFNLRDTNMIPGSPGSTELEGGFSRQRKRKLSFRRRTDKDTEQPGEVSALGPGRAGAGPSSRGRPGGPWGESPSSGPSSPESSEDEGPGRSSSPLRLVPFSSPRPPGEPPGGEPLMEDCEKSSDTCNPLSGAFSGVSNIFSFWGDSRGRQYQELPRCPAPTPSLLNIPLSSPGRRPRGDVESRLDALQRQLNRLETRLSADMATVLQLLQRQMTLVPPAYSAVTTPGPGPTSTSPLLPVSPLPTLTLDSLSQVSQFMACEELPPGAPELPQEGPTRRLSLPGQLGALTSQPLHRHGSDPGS

[6] = target: T2, GABA-A receptor; alpha-5/beta-3/gamma-2 (Homo sapiens); experiment: Negative allosteric modulation activity at human recombinant alpha5beta3gamma2 GABAA receptor stably expressed in HEK293 cells assessed as modulation at alpha5 subunit at 1 uM by Patch clamp method; format: cell-based; conditions: filed as negative allosteric modulator
[7] = target: GABA-A receptor; alpha-1/beta-3/gamma-2 (Homo sapiens) (UniProt P14867+P18507+P28472); experiment: Negative allosteric modulation activity at human recombinant alpha1beta3gamma2 GABAA receptor stably expressed in HEK293 cells assessed as modulation at alpha1 subunit at 10 uM by Patch clamp method; format: cell-based; conditions: filed as negative allosteric modulator
[8] = Passive permeability in human Caco-2 cells assessed as permeability damage ratio at 10 uM by HPLC-UV analysis; format: ADME, cell-based; conditions: caco-2, 10 µM
[9] = Apparent permeability in human Caco-2 cells at 10 uM by HPLC-UV analysis; format: ADME, cell-based

Structure (SMILES)	microsomal CLint at 2.5 µM [1] [µL/min/mg]	microsomal CLint at 2.5 µM [2] [µL/min/mg]	Ki [3] [nM]	Activity [4] [%]	Activity [6] [%]	Activity [7] [%]	Papp at 10 µM [9] [×10⁻⁶ cm/s]	IC50 [5] [nM]	Ratio [8]
Cc1nnn(-c2ccc(F)cc2)c1COc1ccc2c(n1)CCN(C(=O)C1CC1)C2	53	99	49						
Cc1onc(-c2ccc(F)cc2)c1COc1ccc2c(n1)CCN(CC1CCCO1)C2=O (stereo not drawn)			23	-28	-29	-6		2900	
Cc1onc(-c2ccc(F)cc2)c1COc1ccc2c(n1)CCN(CC1CCCS1(=O)=O)C2=O (stereo not drawn)			23	-36	-23	-12		1800	
Cc1onc(-c2ccc(F)cc2)c1COc1ccc(C(=O)N2CCS(=O)(=O)CC2)cn1 [BASMISANIL]	7.5	22	4.4	-25	-24	-2			
Cc1onc(-c2ccc(F)cc2)c1COc1ccc2c(c1)OCC(=O)N2C	33	381	14		-16				
CCC(=O)N1CCc2nc(OCc3c(C)nnn3-c3ccc(F)cc3)ccc2C1	48	92	46						
Cc1onc(-c2ccc(F)cc2)c1COc1ccc2c(c1)CCC(=O)N2C			13	-10	-6				
Cc1onc(-c2ccc(F)cc2)c1COc1ccc2c(n1)CCN(Cc1ccco1)C2=O	85	365	21	-31	-14			3500	
Cc1nnn(-c2ccc(F)cc2)c1COc1ccc2c(n1)CCN(C(=O)NC1CCOC1)C2 (stereo not drawn)	10	39	28	-34	-32		18.7	21000	4.7
Cc1onc(-c2ccc(F)cc2)c1COc1ccc2c(n1)CCN(C(=O)CCS(C)(=O)=O)C2	9	44	30	-35	-16			4200	
Cc1onc(-c2ccc(F)cc2)c1COc1ccc2c(n1)CCN(C(=O)N1CCCCC1)C2	107	359	49					10000	
Cc1onc(-c2ccc(F)cc2)c1COc1ccc2c(n1)CCN(C(=O)C1CCC1)C2	57	400	13	-26	-7			> 10000	
Cc1nnn(-c2ccc(F)cc2)c1COc1ccc2c(n1)CCN(C(=O)C1CC(=O)N(C)C1)C2 (stereo not drawn)	1	4	35	-47	-32		7.54	30000	8.9

Continued, in another order:

microsomal CLint at 2.5 µM [1] [µL/min/mg]	microsomal CLint at 2.5 µM [2] [µL/min/mg]	Ki [3] [nM]	Activity [4] [%]	Activity [6] [%]	Activity [7] [%]	Papp at 10 µM [9] [×10⁻⁶ cm/s]	Structure (SMILES)	IC50 [5] [nM]	Ratio [8]
42	210	9.9					Cc1onc(-c2ccc(F)cc2)c1COc1ccc2c(n1)CCN(C(=O)C1CCCO1)C2 (stereo not drawn)		
67	245	4.6	-32	-13			Cc1onc(-c2ccc(F)cc2)c1COc1ccc2c(n1)CCN(C(=O)c1ccno1)C2	6400	
24	158	7	-40	-24	-14		Cc1onc(-c2ccc(F)cc2)c1COc1ccc2c(n1)CCN(C(=O)C1CCOC1)C2 (stereo not drawn)	3600	
49	356	2.7	-42	-22			Cc1onc(-c2ccc(F)cc2)c1COc1ccc2c(n1)CCN(C(=O)N(C)C)C2	8300	
16	214	13	-25	-9	-2		Cc1onc(-c2ccc(F)cc2)c1COc1ccc2c(n1)CCN(C(C)C)C2=O	4400	
10	36	3.6	-38	-22	-10		Cc1onc(-c2ccc(F)cc2)c1COc1ccc2c(n1)CCN(C(=O)C1CCS(=O)(=O)CC1)C2	2900	
45	279	7.3	-36	-12			Cc1onc(-c2ccc(F)cc2)c1COc1ccc2c(n1)CCN(C(=O)N1CCCC1)C2	10000	
32	142	4.6	-39	-15			Cc1onc(-c2ccc(F)cc2)c1COc1ccc2c(n1)CCN(C(=O)N1CCOCC1)C2	9100	
14	227	4.1	-42	-25	2		Cc1onc(-c2ccc(F)cc2)c1COc1ccc2c(n1)CCNC2=O	10000	
10	108	10	-7	-6			Cc1onc(-c2ccc(F)cc2)c1COc1ccc2c(c1)CCNC2=O		
28	404	2.8	-31	-21	-8		Cc1onc(-c2ccc(F)cc2)c1COc1ccc2c(n1)CCN(C)C2=O	3800	
		9	-35	-29	-10		Cc1onc(-c2ccc(F)cc2)c1COc1ccc2c(n1)CCN(Cc1ccno1)C2=O	2500	
74	301	1.9	-16	-19			CC(=O)N1CCc2nc(OCc3c(-c4ccc(F)cc4)noc3C)ccc2C1	5300	
10	93	9.2	-37	-20	-9		Cc1onc(-c2ccc(F)cc2)c1COc1ccc2c(n1)CCN(C(=O)C1CCOCC1)C2	5700	
29	139	8	-39	-25	-10		Cc1onc(-c2ccc(F)cc2)c1COc1ccc2c(n1)CCN(C1CCOC1)C2=O (stereo not drawn)	3200	
71	388	8.3	-34	-4			Cc1onc(-c2ccc(F)cc2)c1COc1ccc2c(n1)CCN(C(=O)C1CC1)C2	5800	
		0.49	6	15			Cc1onc(-c2ccc(F)cc2)c1COc1cc2c(cn1)C(=O)NCC2		
